Entries after “also recorded” stand apart in the source; their conditions may differ. Marks after values point to notes of the source that are not given here.

The test relates to scopolamine induced memory deficit in male Wistar rats. Nature of the test: Object recognition task (ORT), scopolamine induced memory deficit. It counts as in vivo. The note with it: for d2 (discrimination index): 1 h retention, mean (SEM). An excerpt:
The objective of this study is to evaluate the efficacious dose range of roflumilast with regard to cognitive improvement effects by using scopolamine induced memory deficit on object memory performance in male Wistar rats. Memory acquisition processes are investigated using the object recognition test (ORT).
Maintenance of Animals: Sixteen 3-4 month old male Wistar rats (Charles River, Sulzfeld, Germany) were used for the study. All animals were housed individually in standard green line Tecniplast IVC cages on stardust bedding. The animals were housed on a reversed 12/12 h light/dark cycle (lights on from 07:00 pm to 07:00 am) and had free access to food and water. The rats were housed and tested in the same room. A radio, playing softly, provided background noise in the room. All testing was performed between 09:00 am and 06:00 pm.
Preparation of Compounds: Drugs were prepared daily, except as indicated otherwise. Roflumilast (Takeda, Konstanz, Germany, MW 403.21) was dissolved in 98% methylcellulose solution (0.5% methylcellulose) and 2% Tween 80. Roflumilast in doses of 0 (vehicle), 0.0001, 0.0003, 0.001, 0.003, 0.01 and 0.03 mg/kg was administered intraperitoneally (ip, injection volume 1 ml/kg). Scopolamine (in form of scopolamine hydrobromide) was dissolved in saline (0.9% NaCl). Scopolamine hydrobromide was administered intraperitoneally at a dose of 0.1 mg/kg (ip, injection volume 1 ml/kg). Scopolamine and roflumilast were administered 30 min before T1.
Object Recognition Task in Rats: The ORT was performed as described elsewhere (Ennaceur and Delaceur, 1988, Behav Brain Res, Vol 31, pp 47-59; Akkerman et al; 2012, Behav Brain Res, Vol 232, pp 335-347). The apparatus consisted of a circular arena, 83 cm in diameter. The back half of the 40 cm high wall was made of grey PVC and the front was made of transparent PVC. Fluorescent red tubes and a light bulb provided a constant illumination of about 20 lux on the floor of the apparatus. The light intensity was equal in the different parts of the apparatus.
Two objects were placed in symmetrical positions at the mid-line between the gray and transparent halves of the arena, about ten centimeters away from wall. Four different sets of objects were available: 1) a standard 1 L brown transparent glass bottle (diameter 10 cm, height 22 cm) filled with water, 2) a metal cube (10.0×5.0×7.5 cm) with two holes (diameter 1.9 cm), 3) a cone consisting of a gray PVC base (maximal diameter 18 cm) with a collar on top made of brass (total height 16 cm), and 4) an aluminium cube with a tapering top (13.0×8.0×8.0 cm). Objects were presented to the animals in a balanced manner to avoid object or place biases. Rats were unable to displace the objects.
A test session comprised two trials, each with durations of 3 min. During the learning trial (T1) the apparatus contains two identical objects (object al and a2). Rats were always introduced into the apparatus with their nose towards the transparent wall segment (i.e. facing outwards to the front of the arena). Subsequently, rats were put back in its home cage for a 1 h interval. After the retention interval, rats were put back into the arena for the […] (T2). In T2, the two objects from T1 were replaced by one identical copy (a3) and a different novel object (b). The times spent in exploring each object during T1 and T2 were recorded manually on a personal computer.
Exploration was defined in the following manner: directing the nose to the object at a distance of no more than 2 cm and/or touching the object with the nose. Sitting on the object was not considered as exploratory behavior. In order to avoid the presence of olfactory cues, the objects were thoroughly cleaned with a 70% ethanol solution before each trial.
Prior to compound testing, the animals were handled for 5 min on 2 consecutive days and allowed to explore the ORT arena, also for 5 min. […]

Regarding `O=C(Nc1c(Cl)cncc1Cl)c1ccc(OC(F)F)c(OCC2CC2)c1` [roflumilast, N-(3,5-dichloropyridin-4-yl)-3-cyclopropylmethoxy-4-difluoromethoxybenzamide], the “d2 value compared to the vehicle condition (post-hoc Bonferroni t-test)” value (0.0001 mg/kg ip + scopolamine) is listed as “significantly lower”. Also, the “d2 value compared to the scopolamine condition (post-hoc Bonferroni t-test)” value is reported as “significantly higher” (0.003 mg/kg ip + scopolamine), “significantly higher” (0.01 mg/kg ip + scopolamine) and “significantly higher” (0.03 mg/kg ip + scopolamine). Besides, the “d2 (discrimination index)” value is reported as 0.05 (0.05) (roflumilast 0.0001 mg/kg ip + scopolamine 0.1 mg/kg ip); 0.16 (0.06) # (roflumilast 0.0003 mg/kg ip + scopolamine 0.1 mg/kg ip); 0.27 (0.06) ### (roflumilast 0.001 mg/kg ip + scopolamine 0.1 mg/kg ip); 0.43 (0.06) ### (roflumilast 0.003 mg/kg ip + scopolamine 0.1 mg/kg ip); 0.34 (0.06) ### (roflumilast 0.01 mg/kg ip + scopolamine 0.1 mg/kg ip); 0.30 (0.07) ### (roflumilast 0.03 mg/kg ip + scopolamine 0.1 mg/kg ip). Moreover, the “effect on memory function in rats treated with scopolamine (ORT)” value is, setting by setting: (single ip dose 0.0001 mg/kg, 0.0001 mg/kg) “No effect”; (single ip dose 0.0003 mg/kg, 0.0003 mg/kg) “intermediate memory improvement; also recorded: increasingly less efficacy”; (single ip dose 0.001 mg/kg, 0.001 mg/kg) “intermediate memory improvement; also recorded: increasingly less efficacy”; (single ip dose 0.003 mg/kg, 0.003 mg/kg) “fully restore memory function”; (single ip dose 0.01 mg/kg) “increasingly less efficacy”; (single ip dose 0.03 mg/kg) “increasingly less efficacy”.

The record behind these values is patent US10357486B2, “Treatment of cognitive impairment with PDE4 inhibitor” (Universiteit Maastricht, priority 2013, dated 2019).
